Laboratory results taken from PMC10394516, “The pharmacokinetic profile of brensocatib and its effect on pharmacodynamic biomarkers including NE, PR3, and CatG in various rodent species” (Frontiers in Pharmacology, 2023).

Key:
CatG = experiment: PD recovery study, bone marrow CatG activity, C57BL/6 mice; assay type: in vivo; details: for Percent change from vehicle CatG: bone marrow
Method: (§1) A PD recovery study was performed in female C57BL/6 mice dosed BID for 8 consecutive days. Mice were dosed by oral gavage either with vehicle (0 mg/kg) or 5 mg/kg brensocatib (BID; 10 mg/kg/day). After 8 consecutive days of dosing, the animals were maintained without further treatment until prescribed sacrifice (days: 1, 3, 6, 8, and 10 days post final dose). Plasma was collected from animals during the first 24 h of dosing at −0.5 (half-hour prior to dosing), 1, 8, 9, and 24 h post initial dose. Note that the 8- and 24-h plasma samples were prior to the afternoon dose and prior to the second day dose, respectively. Plasma was used for PK analysis via LC-MS/MS. On prescribed days, animals were sacrificed, and the hind limb bones (femurs and tibias) were collected at necropsy for bone marrow analysis of NSP activities by kinetic enzymatic assays.
(§2) For the mice, each animal had the femurs and tibias of both hind limbs harvested. For the rat, the femur and tibia from a single hind limb per animal was harvested. Bones were kept on wet ice until processing for bone marrow collection. In brief, bone cutters were used to cut the epiphysis (knobby ends) off the long bones to expose the bone marrow filled cavity. Each bone cavity was then flushed with 5 mL/bone (mouse) or 10 mL/bone (rat) of ice-cold RPMI media through a […] and collected in a 50-mL conical tube. Cells were spun down at 2,500 × g at 4°C for 5 min and the supernatant was aspirated. After which, bone marrow cells were lysed with 1X red blood cell (RBC) lysis buffer (Abcam, ab204733) to eliminate contaminating RBCs and washed with PBS to remove any residual RBC lysis buffer. The resulting white blood cells (WBC) were subsequently lysed with 1% (v/v) Triton X-100 in PBS. Lysates were added to 96-well plates and stored at −80°C until NSP analyses.
(§3) Bone marrow lysates prepared as described above were diluted and plated onto 96-well assay plates to quantify NSP activities as described previously ([Basso et al., 2022]). Briefly, peptide substrates for NE (N-Methoxysuccinyl-Ala-Ala-Pro-Val-7-amido-4-methylcoumarin; Sigma; St. Louis, MO; Excitation/Emission at 350/450 nm), PR3 ((7-Methoxycoumarin-4-yl)acetyl-lysyl-(picolinoyl)-Tyr-Asp-Ala-Lys-Gly-Asp-N-3-(2-4-dinitrophenyl)-2-3-diaminopropyonyl-NH2); GenScript; Piscataway, NJ; Excitation/Emission at 340/430 nm), and CatG (N-Succinyl-Ala-Ala-Pro-Phe p nitroanilide; Sigma; Absorbance at 405 nm) were added at a final assay concentration of 100 μM, 40 μM, and 200 μM, respectively, and either fluorescence or absorbance was quantified using a Synergy microplate reader (BioTek; Winooski, VT). The specific NSP activity in each sample was calculated as the total activity minus the activity in the presence of a specific NSP inhibitor (if used), including elastase inhibitor (Abcam) for NE, sivelestat (Abcam) for PR3, and cathepsin G inhibitor I (Cayman Chemical; Ann Arbor, MI) for CatG. NSP concentrations were interpolated based on their activities relative to the standard curves created using active human NE protein (Sigma), active human PR3 protein (Sigma), and active human CatG protein (Sigma), respectively. Due to unavailability of commercial mouse and/or rat NE, PR3, and CatG proteins, the corresponding human proteins were used instead since their catalytic ability is considered to be conserved across species. A portion of each cell lysate sample was retained for protein quantification using a Pierce™ BCA Protein Assay Kit (Thermo Fisher). The NSP activities were normalized for the cell lysate protein concentrations.
(§4) The Pierce™ BCA Protein Assay Kit was used to measure the total protein of the samples after lysis to allow for subsequent normalization. The manufacturer’s instructions for use were followed when performing this assay on a portion of the sample lysates which were diluted in PBS, the same diluent as used for preparation of the standard. Plates were read on the Biotek Synergy plate reader with Gen5 software.

NE [1] = tested on: NE; design: method as in Chalmers et al., 2020; details: Phase 2 trial in NCFBE (WILLOW, NCT03218917), vs placebo; ref Chalmers et al., 2020; cited from earlier work
NE [2] = experiment: PD recovery study, bone marrow NE activity, C57BL/6 mice; assay type: in vivo; details: for Percent change from vehicle NE: bone marrow
Method: as §1, §2, §3, §4

PR3 = experiment: Bone marrow PR3 activity after repeated dosing, C57BL/6 mice; assay type: in vivo; details: for Reduction of PR3 activity vs vehicle / Change From Vehicle Control (%) PR3: 7 days
Method: Briefly, animals were weighed and randomized into different treatment groups. In total, three different dosing levels of brensocatib were tested in each species and strain; each QD dosing level was equivalent to 1.5-times the matching daily BID dose. For BID dosing, the second daily dose was administered 8-h post the morning dose. C57BL/6 mice were dosed either BID or QD for 7 consecutive days at 0/0, 0.5/0.75, 2/3, and 20/30 mg/kg/day (BID/QD). BALB/c mice were dosed for 7 consecutive days at 0/0, 0.2/0.3, 2/3, and 20/30 mg/kg/day (BID/QD). SD rats were dosed for 9 consecutive days at 0/0, 0.2/0.3, 2/3, and 20/30 mg/kg/day (BID/QD). Wistar rats were dosed for 7 consecutive days at 0/0, 0.2/0.3, 2/3, and 20/30 mg/kg/day (BID/QD).
At the completion of the study, animals were sacrificed 16–24 h post their final dose. The hind limb bones (femurs and tibias) were collected at necropsy for bone marrow analysis of NSP activities by kinetic enzymatic assays ([Basso et al., 2022]). See section Quantification of Bone Marrow NSP Activities for details.
as §2, §3
The Pierce™ BCA Protein Assay Kit was used to measure the total protein of the samples after lysis to allow for subsequent normalization. […]

[3] = after 8 days of 5 mg/kg BID, curve fit with free min and max
[4] = 1 day recovery after 8 days of 5 mg/kg BID
[5] = 3 days recovery after 8 days of 5 mg/kg BID
[6] = 6 days recovery after 8 days of 5 mg/kg BID
[7] = 8 days recovery after 8 days of 5 mg/kg BID
[8] = 10 days recovery after 8 days of 5 mg/kg BID

Cn1c(=O)oc2ccc(-c3ccc(C[C@@H](C#N)NC(=O)[C@@H]4CNCCCO4)cc3)cc21 [brensocatib]
Recovery: Time to reach 50% recovery, CatG (CatG; [3]): 3.3 days
Recovery: Time to reach 90% recovery, CatG (CatG; [3]): 5.2 days
Recovery: Time to reach 95% recovery, CatG (CatG; [3]): 5.5 days
Recovery: Time to reach 100% recovery, CatG (CatG; [3]): 5.8 days
Percent change from vehicle CatG (CatG; [4]): −93% (p < 0.0001)
Percent change from vehicle CatG (CatG; [5]): −60% (p < 0.0001)
Percent change from vehicle CatG (CatG; [6]): −14% (p = 0.2431)
Percent change from vehicle CatG (CatG; [7]): +26% (p = 0.0133)
Percent change from vehicle CatG (CatG; [8]): +38% (p < 0.0001)
sputum NE activity (NE [1]): dose-dependent reduction
Recovery: Time to reach 50% recovery, NE (NE [2]; [3]): 0.8 days
Recovery: Time to reach 90% recovery, NE (NE [2]; [3]): 4.9 days
Recovery: Time to reach 95% recovery, NE (NE [2]; [3]): 5.6 days
Recovery: Time to reach 100% recovery, NE (NE [2]; [3]): 6.6 days
Percent change from vehicle NE (NE [2]; [4]): −49% (p < 0.0001)
Percent change from vehicle NE (NE [2]; [5]): −4% (p = 0.9544)
Percent change from vehicle NE (NE [2]; [6]): −20% (p = 0.0067)
Percent change from vehicle NE (NE [2]; [7]): −2% (p = 0.9986)
Percent change from vehicle NE (NE [2]; [8]): +15% (p = 0.0607)
Reduction of PR3 activity vs vehicle (PR3; BID highest dose (20 mg/kg/day)): 80%
Reduction of PR3 activity vs vehicle (PR3; QD highest dose (30 mg/kg/day)): 65%
Combined BID and QD percent reduction, PR3 (PR3; highest dose level 20/30 (BID/QD) mg/kg/day): 71%
Change From Vehicle Control (%) PR3 (PR3; oral BID 0.5 mg/kg/day, 16 h post final dose): 9% (p = 0.8059)
Change From Vehicle Control (%) PR3 (PR3; oral BID 2 mg/kg/day, 16 h post final dose): −44% (p = 0.0041)
Change From Vehicle Control (%) PR3 (PR3; oral BID 20 mg/kg/day, 16 h post final dose): −80% (p < 0.0001)
Change From Vehicle Control (%) PR3 (PR3; oral QD 0.75 mg/kg/day, 24 h post final dose): +2% (p = 0.9977)
Change From Vehicle Control (%) PR3 (PR3; oral QD 3 mg/kg/day, 24 h post final dose): −46% (p = 0.0008)
Change From Vehicle Control (%) PR3 (PR3; oral QD 30 mg/kg/day, 24 h post final dose): −65% (p < 0.0001)
